Experimental findings from ChEMBL document CHEMBL3301472, “MMV Malaria Box HIV and cytotoxicity screening” are described below.

What all share (assay type): toxicity, cell-based
A short description of data set [1]: MMV: MTT Cytotoxicity Assay Day 3 pi, U87-CD4-CCR5 cells, % cell death @ 5mM compound. To be noted: human, u87-cd4-ccr5, 5000 µM.
A short description of data set [2]: MMV: MTT Cytotoxicity Assay Day 3 pi, U87-CD4-CXCR4 cells, % cell death @ 5mM compound. Conditions: human, u87-cd4-cxcr4, 5000 µM.
Data set [3] in a line: MMV: MTT Cytotoxicity Assay Day 7 pi of Assay #6 (compound washed out Day 1 pi), U87-CD4-CCR5 cells, % cell death @ 5mM compound. Conditions: human, u87-cd4-ccr5, 5000 µM.
The nature of data set [4]: MMV: MTT Cytotoxicity Assay Day 7 pi of Assay #7 (compound washed out Day 1 pi), U87-CD4-CXCR4 cells, % cell death @ 5mM compound. To be noted: human, u87-cd4-cxcr4, 5000 µM.
A short description of data set [5]: MMV: MTT Cytotoxicity Assay Day 7 pi of Assay #10 (NO washout), U87-CD4-CCR5 cells, % cell death @ 5mM compound. Conditions: human, u87-cd4-ccr5, 5000 µM.
The nature of data set [6]: MMV: MTT Cytotoxicity Assay Day 7 pi of Assay #11 (NO washout), U87-CD4-CXCR4 cells, % cell death @ 5mM compound. Conditions: human, u87-cd4-cxcr4, 5000 µM.

For `CCN(CC)CCNc1ncnc2c1[nH]c1ccc(Cl)cc12`, the “% Cell Death” value in data set [1] is listed as 15; in data set [2] it was 30; in data set [3], 1; in data set [4] it was -31; in data set [5] it was 5; in data set [6] it was -1.

Turning to `COc1ccc(NC(=O)C2c3ccccc3C(=O)N(CC(C)C)C2c2cccs2)cc1Cl` (centres undefined), the “% Cell Death” value in data set [1] is on record as 13; in data set [2], 22; in data set [3], 5; in data set [4], -21; in data set [5], -2; in data set [6], -10.

Regarding `COc1cc(OC)cc(N2C(=O)N(Cc3ccc(C(C)(C)C)cc3)c3ccccc3S2(=O)=O)c1`, the “% Cell Death” value in data set [1] was 34; in data set [2], 36; in data set [3] it was 34; in data set [4] it was -10; in data set [5], 39; in data set [6], 64.

For `CCOC(=O)c1c(NC(=O)c2ccccc2)sc2c(O)c(CN(CC)CC)ccc12`, the “% Cell Death” value in data set [1] is -7; in data set [2], -8; in data set [3], -2; in data set [4] it was 40; in data set [5], 25; in data set [6], 25.

`CC(C)(C)c1ccc(C(=O)Nc2nc3ccccc3s2)cc1`: the “% Cell Death” value in data set [1] is listed as 1; in data set [2], 12; in data set [3], 20; in data set [4], -23; in data set [5], 24; in data set [6] it was -30.

For the compound `CCOc1ccccc1CN1CCc2nc3cc(C(C)(C)C)nn3c(O)c2C1`, the “% Cell Death” value in data set [1] is recorded as 100; in data set [2], 21; in data set [3], -7; in data set [4], 3; in data set [5], 95; in data set [6], 98.

Regarding `COc1ccc(CCNC(=O)c2cc(S(=O)(=O)N3CC(C)CC(C)C3)ccc2Sc2ccc(F)cc2)cc1OC` (centres undefined), the “% Cell Death” value is reported as 39 in data set [1]; 39 in data set [2]; -8 in data set [3]; 14 in data set [4]; 27 in data set [5]; 29 in data set [6].

As for `Cc1cc(=O)oc2c1ccc1oc(C(=O)c3ccccc3)c(C)c12`, the “% Cell Death” value was 10 in data set [1]; 29 in data set [2]; 4 in data set [3]; -3 in data set [4]; 35 in data set [5]; -19 in data set [6].

Turning to `COc1nc(Nc2ccc(C(C)C)cc2)nc(OC)n1`, the “% Cell Death” value in data set [1] is -1; in data set [2], 32; in data set [3], 33; in data set [4], -7; in data set [5], 33; in data set [6] it was 24.

As to `COc1ccc(CN2CCCC(C(=O)c3ccc(C(F)(F)F)cc3)C2)c(O)c1` (centres undefined), the “% Cell Death” value in data set [1] was 107; in data set [2], 89; in data set [3], 104; in data set [4] it was 97; in data set [5], 105; in data set [6], 109.

Consider `Brc1ccc(Nc2nc3ccccc3nc2Nc2ccc(Br)cc2)cc1`, for which the “% Cell Death” value in data set [1] is reported as 15; in data set [2], 20; in data set [3] it was -14; in data set [4], -10; in data set [5], 28; in data set [6], -26.

Regarding `COc1cc2c(cc1OC)C1=NNC(=O)C1=NC(C)(C)C2`, the “% Cell Death” value in data set [1] stood at 107; in data set [2] it was 100; in data set [3], 101; in data set [4], 95; in data set [5], 106; in data set [6] it was 98.

Take `Cc1ccc(Nc2nc(N)c3ccccc3n2)cc1Cl`: the “% Cell Death” value is -34 in data set [1]; 36 in data set [2]; -17 in data set [3]; -9 in data set [4]; -2 in data set [5]; -31 in data set [6].

For `COc1ccc(CNC(=O)c2cc3c(=O)n4ccccc4nc3n(CCc3ccccc3)c2=N)cc1`, the “% Cell Death” value in data set [1] is 14; in data set [2], 37; in data set [3], -17; in data set [4], -14; in data set [5] it was 0; in data set [6], 49.

As for `Cc1ccc(N2C3c4ccccc4N(S(=O)(=O)c4ccc(C)cc4)C2c2ccccc2N3S(=O)(=O)c2ccc(C)cc2)cc1`, the “% Cell Death” value in data set [1] is 26; in data set [2] it was 37; in data set [3], 0; in data set [4], -17; in data set [5] it was 8; in data set [6], -39.

On to `Cc1nc2ccccc2c(O)c1CC=C(Cl)Cl`, for which the “% Cell Death” value is on record as 19 in data set [1]; 30 in data set [2]; -2 in data set [3]; 20 in data set [4]; 26 in data set [5]; -3 in data set [6].

Regarding `O=c1c2c([nH]c3ccccc13)CCCC2`, the “% Cell Death” value in data set [1] is given as 9; in data set [2], 33; in data set [3], 7; in data set [4] it was -18; in data set [5], -11; in data set [6] it was -44.

Regarding `COc1ccc(CCN2C(=O)c3[nH]nc(-c4cc(Cl)c(C)cc4O)c3C2c2ccccc2F)cc1` (centres undefined), the “% Cell Death” value is recorded as 19 in data set [1]; 32 in data set [2]; -35 in data set [3]; -18 in data set [4]; 47 in data set [5]; -26 in data set [6].

Regarding `Cl.c1ccc2c(NCCCCCCNc3c4c(nc5ccccc35)CCCC4)c3c(nc2c1)CCCC3`, the “% Cell Death” value in data set [1] is listed as 12; in data set [2], 32; in data set [3], -1; in data set [4], -18; in data set [5], 34; in data set [6] it was 9.

Consider `CC1=C(CC(=O)c2cccc([N+](=O)[O-])c2)C(=O)c2ccccc2C1=O`, for which the “% Cell Death” value in data set [1] stood at 92; in data set [2], 76; in data set [3] it was 100; in data set [4], 91; in data set [5], 94; in data set [6] it was 106.

Take `O=C(Nc1cccc(-c2nc3ccccc3[nH]2)c1)c1cccc(NC(=O)c2ccco2)c1`: the “% Cell Death” value in data set [1] is listed as -8; in data set [2], 22; in data set [3], 11; in data set [4], -31; in data set [5], 20; in data set [6], -18.

`COc1ccc(C2N(C)c3ccccc3N2C)cc1`: the “% Cell Death” value is given as -7 in data set [1]; -15 in data set [2]; 16 in data set [3]; -14 in data set [4]; 3 in data set [5]; 30 in data set [6].

Regarding `CN1c2ccccc2N(C)C1c1ccc2c(c1)OCO2`, the “% Cell Death” value in data set [1] is -7; in data set [2], 3; in data set [3] it was 10; in data set [4], 16; in data set [5], 1; in data set [6] it was -2.

Take `O=c1cc(NC2CCN(CCCc3ccccc3)CC2)c2cc(Cl)ccc2o1`: the “% Cell Death” value is 16 in data set [1]; 19 in data set [2]; -6 in data set [3]; 37 in data set [4]; 31 in data set [5]; -41 in data set [6].

Consider `Fc1ccc2[nH]c3c(NCCCN4CCOCC4)ncnc3c2c1`, for which the “% Cell Death” value in data set [1] is on record as -1; in data set [2], 36; in data set [3] it was 34; in data set [4] it was 7; in data set [5], 38; in data set [6], 49.

With `CCOc1cc2c(cc1OCC)C(c1cc(Cl)ccc1O)NCC2` (centres undefined), the “% Cell Death” value in data set [1] is recorded as 20; in data set [2], 42; in data set [3], -26; in data set [4], 3; in data set [5], 17; in data set [6] it was 21.

Consider `COc1cc(C(=O)Nc2ccc(-c3nc4ccccc4[nH]3)cc2)cc(OC)c1OC`, for which the “% Cell Death” value in data set [1] was -27; in data set [2], 29; in data set [3], -4; in data set [4], -7; in data set [5], 29; in data set [6], -49.

Regarding `CCc1ccc(CNCC(O)c2ccccc2)cc1.Cl` (centres undefined), the “% Cell Death” value is recorded as -25 in data set [1]; 37 in data set [2]; -3 in data set [3]; 28 in data set [4]; 2 in data set [5]; 38 in data set [6].

Take `COc1cccc(-c2nn(C)c3sc(C(=O)NCCN4CCN(c5ccccc5F)CC4)cc23)c1`: the “% Cell Death” value in data set [1] was 21; in data set [2] it was 64; in data set [3] it was 2; in data set [4], -4; in data set [5], 33; in data set [6], 13.
